Patent publication US10391070B2, “Compositions and methods for treating neurological diseases or injury” (MUSC FOUNDATION FOR RESEARCH DEVELOPMENT, priority 2012, dated 2019)

Tests used:
[1] = system: HDAC; conditions: HDAC isozymes inhibited; cited from earlier work
[2] = system: HT-22 neuronal cells; assay: Respirometry (OCR, ECAR; Seahorse XF-96); assay type: cell-based, mouse; design: ECAR (glycolysis), difference from control: unit not given here; conditions: HT-22 cells, mean±SEM
Procedure: Oxygen consumption rates (OCR) and extracellular acidification rates (ECAR) of HT-22 neuronal cells were performed on the XF-96 Extracellular Flux Analyzer (Seahorse Bioscience) using standard methods (Beeson et al., 2010). In brief, cells were cultured in 96 well Seahorse plates in DMEM high glucose media (Invitrogen) supplemented with 10% FBS, 10 mM HEPES, and 1% antibiotic-antimycotic (Invitrogen). The media was replaced with DMEM media supplemented with 25 mM glucose, 10 mM sodium pyruvate, 31 mM NaCl, and 2 mM glutamine at pH 7.4. Each of the four drug ports on the Seahorse sensor cartridge were filled with test compound (media only, 5 μM NQN-1, 10 μM VK3 or 12.5 μM MB), 10 μM oligomycin, 1 μM FCCP, and 5 μM rotenone, which were injected into each well at 20, 80, 110, and 135 min, respectively. The pmol/min OCR rate for each well (9-52 wells/group) was measured. Wells were excluded from the analysis if their OCR values surpassed the Tukey Outlier Rule. In order to standardize the OCR rates across wells, the average OCR value at 17 min (last time point prior to injection of the test compounds) for each experimental group was calculated, and set to 100. All OCR values are given as a percentage of this pre-treatment value. […]

[3] = system: PTZ-induced seizures; assay: PTZ-induced seizure (swim activity) model in zebrafish larvae; assay type: in vivo, zebrafish (Danio rerio)
Procedure: The DanioVision locomotion tracking instrument with Ethovision XT software (Noldus) was used to measure the severity of the seizures by quantifying the locomotor activity of each fish.
In a 48-well plate, one 6-7 dpf larva was added per well. Compounds were given at a sub-lethal dose and treated for 1 h. Three control rows were included—tank water (TW) only, PTZ only and PTZ+VPA (2-4 mM final concentration of VPA). […] After 5 min, the plate was transferred to the Daniovision apparatus and the chamber light was turned on. After 2 min, Ethovision was used to determine the distance traveled (a marker of seizure of activity) by each fish for 15 min (25 frames per second). Velocity, duration of movement, and frequency of movement were also determined from the same recording. After measurement, fish were monitored visually for survival. The distance moved over the recording period with Ethovision XT software (Noldus) was averaged over 8 wells per treatment unless the fish was not detected.
In a 48-well plate, one 7 dpf zebrafish was added per well. Larvae were dosed with each compound at a sub-lethal dose 1 h prior to PTZ treatment. Three control rows were included with each experiment—tank water only control, PTZ only and PTZ+VPA (4 mM final concentration of VPA). […] After 5 min, the plate was transferred to the Daniovision instrument (Noldus Information Technology) and the chamber light was turned on. After 2 min, MediaRecorder (Noldus) was used to record video for 15 min. A small number of videos were acquired 25 frames per second, but the majority of the data was acquired at the frame rate of 60 frames per second. After recording, fish were monitored visually for survival. Ethovision XT software (Noldus) was used to track the fish movement from the video images in order to calculate the total distance traveled over 15 min. […] All experimental comparisons were made between animals from the same clutch.

[4] = system: zebrafish larvae; assay: Zebrafish larval toxicity (NOEC, lethal dose); assay type: in vivo; conditions: 7 dpf zebrafish larvae
Procedure: Using a 96-well plate, one zebrafish larva (7 dpf) was placed in each well in 100 μL of tank water (TW). 100 μL of each compound (0.5-15 μM) was then added to each well for 12 animals (one row) to give a final volume of 200 […]. A control row was tested for DMSO toxicity effects. […] Each drug was assessed for the no observed effect concentration (NOEC), the highest non-lethal dose resulting in no apparent toxic effects.
Zebrafish (AB strain) were obtained from the Zebrafish International Resource Center (supported by P40 RR012546 from NIH-NCRR). Zebrafish were maintained and crossed according to standard methods (Westerfield, 2000). Fertilized eggs were collected and placed in E3 embryo medium and positioned in an incubator set at 28.5° C. with a 14/10 h light/dark cycle (Kimmel et al., 1995). To determine the lethal dose of each compound, 96-well plates containing one zebrafish (7 days post-fertilization, dpf) per well in 100 μL of tank water were used. 100 μL of each compound (0.5 to 15 μM) was added to each well for 12 animals (one row) for a final volume of 200 μL. One row of larvae was used as DMSO only controls. […] All zebrafish studies were approved by the Medical University of South Carolina Institutional Animal Care and Use Committee (AR #2850) and performed in accordance with the guidelines.
Using a 96-well plate, one zebrafish larva (7 dpf) was placed in each well in 100 μL of tank water. 100 μL of each compound was then added to each well for 12 animals (one row) for a final volume of 200 μL. One row of zebrafish larvae was used as DMSO only controls. […] Toxicity was also measured in the mouse model by the NIH Anticonvulsant Screening Program at the National Institute of Neurological Disorders and Stroke (Stables and Kupferberg, 1997), according to the established NIH experimental procedures. Compounds were delivered into mice by intraperitoneal (i.p.) injection at a dose of 100 mg/kg in sterile 5% DMSO, 95% Neobee (Josey et al., 2013). Acute toxicity was assessed by monitoring the animals for impaired neuromuscular function by placing treated mice on a rod rotating at 6 rpm. […]

[5] = system: c-fos; assay: c-fos gene expression in PTZ-treated zebrafish larvae; assay type: in vivo, zebrafish (Danio rerio); conditions: 7 dpf zebrafish, pre-treatment
Procedure: Ten 7 dpf larvae were placed in 500 μL tank water in wells of a 48-well cell-culture plate and appropriate concentrations of drugs were added as in the behavior study (Table 9). After a 1 h pre-incubation period, PTZ was added to a final concentration of 15 mM in appropriate wells and larvae were incubated for a further 45 min. Fish were quickly euthanized by incubating the plate in an ice-water bath for 15 min. Fish were removed from each well and all liquid removed before freezing at −80° C. RNA was extracted using Trizol (Invitrogen) followed by the RNeasy Mini kit (Qiagen). Frozen embryos were homogenized in 800 μL Trizol using in-tube pestles and a motorized homogenizer. Following a 5-min incubation at room temperature, 200 μL chloroform was added and the samples were centrifuged at 12,000 g for 10 min. The aqueous phase was transferred to a new tube and 250 μL 100% ethanol was added and the samples mixed. This mixture was then transferred to the Qiagen minicolumn assembly and the protocol followed as described with the kit. Samples were eluted in 30 μL RNase free water and concentration was determined using the Nanodrop instrument (Thermo Fisher). cDNA was prepared using the RETROscript kit (Ambion) with 500 ng total RNA. cDNA was then diluted 1:1 with sterile dH2O and 2.5 μL of this cDNA was used in the QPCR reaction with SsoAdvanced SYBR Green Supermix (BioRad) and c-fos primers designed to span an intron-exon junction (c-fos F: […], SEQ ID NO:9; c-fos R: […], SEQ ID NO:10) ([…] each) in the BioRad CFX96 RealTime instrument. L13a and EF1a gene expression were used for normalization (Rahn et al., 2013). The following cycle conditions were used: 95° C./3 min, 40 cycles of 95° C./15 s, 62° C./30 s, followed by 95° C. 30 s and a dissociation curve. Samples were run in duplicate. The 2^−ΔΔCt method was used to quantify gene expression, whereby all gene Ct values were first normalized to Ct values of the geometric mean of the Ct of L13a and EF1a (Livak and Schmittgen, 2001). Treated samples were then normalized to the tank water control and converted to fold change.

O=C(NC1=CC(=O)c2ccccc2C1=O)c1ccccc1 [2-benzoylamino-1,4-naphthoquinone]
HDAC Class of Inhibition [1]: 6
basal cellular respiration, difference in OCR from control ([2]; 1 h treatment, OCR as percentage of pre-treatment value): 24.35±1.03
basal mitochondrial respiration, difference from control ([2]; basal minus non-mitochondrial (rotenone)): 15.26±2.29
ATP-linked respiration, difference from control ([2]; basal minus oligomycin): 16.83±1.83
ECAR (glycolysis), difference from control [2]: 1.75±1.12
concentration required for effective reduction of seizures ([3]; PTZ-treated zebrafish larvae): 3 µM
Seizure suppression ([3]; PTZ-treated zebrafish larvae, pretreated 1 hr at NOEC): Yes
PTZ-induced swim activity (distance traveled) ([3]; zebrafish larvae, 1 h pretreatment at sub-lethal concentration (VPA 4 mM, NQN-1 3 μM), 15 mM PTZ): significantly suppressed PTZ-induced swim activity
Lethal dose ([4]; up to 5 h treatment): 0.005 mM
Highest concentration tested for anti-seizure activity ([4]; highest sub-lethal dose): 0.003 mM
PTZ-induced increase in c-fos expression [5]: able to blunt this increase in expression
